# Measurements reported in patent US10202379B2, “Substituted polycyclic carbamoyl pyridone derivative prodrug” (priority 2010, dated 2019).
# Test system: influenza virus (A/WS/33, A/Victoria/3/75 or B/Maryland/1/59)
# Assay type: in vivo
# Settings: oral, infected mouse, 14 days after virus infection
structure (smiles),measurement,value
CC(=O)Oc1c2n(ccc1=O)N([C@H]1c3ccccc3CSc3ccccc31)CN([C@H](C)C(F)(F)F)C2=O [Example 20],ED50 of single dose (dose for 50% lethality inhibition),4.4 mg/kg/day
